This passage reports IC50 results from US10189841B2, “Purinones as ubiquitin-specific protease 1 inhibitors” (Forma Therapeutics, Inc., priority 2015, dated 2019).

Structures are written as SMILES. Some results are limits rather than exact numbers.

Chain of USP1 (construct USP1 (I-785, GG670, 671AA)/UAF1 (I-677)-Flag) (O94782 whole entry G670A/G671A): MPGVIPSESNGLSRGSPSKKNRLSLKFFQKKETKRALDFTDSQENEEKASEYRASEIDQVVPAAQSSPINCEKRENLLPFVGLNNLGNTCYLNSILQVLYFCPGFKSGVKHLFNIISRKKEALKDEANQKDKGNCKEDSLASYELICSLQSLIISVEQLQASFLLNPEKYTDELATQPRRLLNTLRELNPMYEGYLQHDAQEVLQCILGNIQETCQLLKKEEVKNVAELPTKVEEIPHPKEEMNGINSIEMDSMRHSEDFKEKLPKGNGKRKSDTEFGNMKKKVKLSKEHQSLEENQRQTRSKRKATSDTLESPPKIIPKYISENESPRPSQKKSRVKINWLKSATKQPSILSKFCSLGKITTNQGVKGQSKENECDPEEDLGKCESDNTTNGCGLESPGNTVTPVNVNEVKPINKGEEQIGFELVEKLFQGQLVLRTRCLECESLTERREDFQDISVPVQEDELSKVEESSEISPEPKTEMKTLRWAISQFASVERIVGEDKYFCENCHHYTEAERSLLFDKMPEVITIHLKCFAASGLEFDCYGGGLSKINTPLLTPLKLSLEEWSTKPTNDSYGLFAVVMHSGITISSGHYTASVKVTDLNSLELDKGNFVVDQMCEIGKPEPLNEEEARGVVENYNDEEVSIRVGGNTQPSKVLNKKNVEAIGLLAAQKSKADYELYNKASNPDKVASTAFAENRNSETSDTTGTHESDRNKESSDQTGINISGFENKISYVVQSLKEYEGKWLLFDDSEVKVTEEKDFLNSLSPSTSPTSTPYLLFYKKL
Chain of USP1 (construct USP1 (I-785, GG670, 671AA)/UAF1 (I-677)-Flag) (Q8TAF3 whole entry partner): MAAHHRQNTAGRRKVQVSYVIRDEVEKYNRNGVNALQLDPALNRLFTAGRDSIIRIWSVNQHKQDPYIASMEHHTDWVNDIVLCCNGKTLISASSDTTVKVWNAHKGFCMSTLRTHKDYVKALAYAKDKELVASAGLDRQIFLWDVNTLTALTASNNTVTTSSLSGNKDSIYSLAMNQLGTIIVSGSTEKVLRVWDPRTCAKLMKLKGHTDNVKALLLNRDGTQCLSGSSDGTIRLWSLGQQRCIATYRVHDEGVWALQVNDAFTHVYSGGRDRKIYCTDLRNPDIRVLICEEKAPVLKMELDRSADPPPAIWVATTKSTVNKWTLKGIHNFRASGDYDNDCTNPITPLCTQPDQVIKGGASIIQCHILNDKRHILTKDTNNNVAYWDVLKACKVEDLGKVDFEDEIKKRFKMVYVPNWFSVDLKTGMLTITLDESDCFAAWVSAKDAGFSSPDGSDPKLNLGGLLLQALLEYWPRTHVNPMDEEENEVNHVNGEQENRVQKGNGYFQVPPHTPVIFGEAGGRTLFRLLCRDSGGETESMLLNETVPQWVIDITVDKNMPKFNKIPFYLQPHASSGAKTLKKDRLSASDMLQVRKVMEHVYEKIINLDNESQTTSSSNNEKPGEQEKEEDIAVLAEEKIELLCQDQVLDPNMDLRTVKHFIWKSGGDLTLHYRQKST

This assay addresses USP1 (construct USP1 (I-785, GG670, 671AA)/UAF1 (I-677)-Flag) (Homo sapiens (Human), UniProt O94782, G670A/G671A). The assay is described as follows: Ubiquitin-Rhodamine 110 assay for USP1 activity. It is filed as biochemical. The settings on record: USP1/UAF1 25 pM, Ub-Rh110 25 nM, 30 min preincubation. The method, boiled down:
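Ub-Rh110 (25 nM, ≪Km) cleavage read at ex 485/em 535 in Tris pH 8.0, CaCl2, GSH, Prionex, Triton X-100. The screen used 10 µM compound, 100 pM USP1/UAF1 and 45 min at RT.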
In the case of `Cn1cc(C(F)(F)F)nc1-c1ccc(Cn2c(=O)n(C)c3cnc(-c4cccnc4N4CC(F)C4)nc32)cc1` [Compound I-134, 2-(2-(3-fluoroazetidin-1-yl)pyridin-3-yl)-7-methyl-9-(4-(1-methyl-4-(trifluoromethyl)-1H-imidazol-2-yl)benzyl)-7,9-dihydro-8H-purin-8-one], the IC50 lay in the range of 50 to 200 nM. For `O=c1[nH]c2cnc(-c3cccnc3OC(F)F)nc2n1Cc1ccc(-n2ccc(F)n2)cc1` [Compound I-88, 2-(2-(difluoromethoxy)pyridin-3-yl)-9-(4-(3-fluoro-1H-pyrazol-1-yl)benzyl)-7,9-dihydro-8H-purin-8-one] the value was 200 to 2000 nM; for `CC(=O)N1CC(n2cc(C(F)(F)F)nc2-c2ccc(Cn3c(=O)[nH]c4cnc(-c5cccnc5C(C)C)nc43)cc2)C1` [Compound I-477, 9-(4-(1-(1-acetylazetidin-3-yl)-4-(trifluoromethyl)-1H-imidazol-2-yl)benzyl)-2-(2-isopropylpyridin-3-yl)-7,9-dihydro-8H-purin-8-one], less than 50 nM. For `Cc1cc(Cl)n(-c2ccc(Cn3c(=O)[nH]c4cnc(-c5ccccc5C(C)C)nc43)cc2)n1` [Compound I-211, 9-(4-(5-chloro-3-methyl-1H-pyrazol-1-yl)benzyl)-2-(2-isopropylphenyl)-7,9-dihydro-8H-purin-8-one], the IC50 was less than 50 nM. Compound `COCCn1cc(C(F)(F)F)nc1-c1ccc(Cn2c(=O)[nH]c3cnc(-c4cccnc4C(C)C)nc32)cc1` [Compound I-43, 2-(2-isopropylpyridin-3-yl)-9-(4-(1-(2-methoxyethyl)-4-(trifluoromethyl)-1H-imidazol-2-yl)benzyl)-7,9-dihydro-8H-purin-8-one] gave an IC50 of 50 to 200 nM.

Regarding `Cn1cc(C(F)(F)F)nc1-c1ccc(Cn2c(=O)[nH]c3cnc(-c4cccnc4OCC(F)(F)F)nc32)cc1` [Compound I-26, 9-(4-(1-methyl-4-(trifluoromethyl)-1H-imidazol-2-yl)benzyl)-2-(2-(2,2,2-trifluoroethoxy)pyridin-3-yl)-7,9-dihydro-8H-purin-8-one], the concentration for half-maximal inhibition (IC50) is less than 50 nM. For `CC(C)c1ccccc1-c1ncc2c(n1)n(Cc1cccc(OCC3CCOC3)c1)c(=O)n2C` (centres unmarked) [Compound I-240, 2-(2-isopropylphenyl)-7-methyl-9-(3-((tetrahydrofuran-3-yl)methoxy)benzyl)-7,9-dihydro-8H-purin-8-one] the value was 200 to 2000 nM. The compound `CC(C)NC(=O)N1CCC(Cn2c(=O)n(C)c3cnc(-c4ccccc4C(C)C)nc32)CC1` [Compound I-478, N-isopropyl-4-((2-(2-isopropylphenyl)-7-methyl-8-oxo-7,8-dihydro-9H-purin-9-yl)methyl)piperidine-1-carboxamide] gave a concentration for half-maximal inhibition (IC50) of more than 2000 nM. For `CC(C)c1ccccc1-c1ncc2[nH]c(=O)n(Cc3ccc(-c4cnn(C)c4CC(=O)O)cc3)c2n1` [Compound I-254, 2-(4-(4-((2-(2-isopropylphenyl)-8-oxo-7,8-dihydro-9H-purin-9-yl)methyl)phenyl)-1-methyl-1H-pyrazol-5-yl)acetic acid] the value was more than 2000 nM; for `CC(C)CNC(=O)c1ccc(Cn2c(=O)[nH]c3cnc(-c4ccccc4C(C)C)nc32)cc1` [Compound I-357, N-isobutyl-4-((2-(2-isopropylphenyl)-8-oxo-7,8-dihydro-9H-purin-9-yl)methyl)benzamide], 50 to 200 nM; for `CC(C)c1ccccc1-c1ncc2[nH]c(=O)n(Cc3ccc(C(=O)N4CC5(CCCO5)C4)cc3)c2n1` [Compound I-393, 9-(4-(5-oxa-2-azaspiro[3.4]octane-2-carbonyl)benzyl)-2-(2-isopropylphenyl)-7,9-dihydro-8H-purin-8-one], 200 to 2000 nM. Under `CC(=O)N1CCC(c2ccn(-c3ccc(Cn4c(=O)[nH]c5cnc(-c6ccccc6C(C)C)nc54)cc3)n2)C1` (centres unmarked) [Compound I-467, 9-(4-(3-(1-acetylpyrrolidin-3-yl)-1H-pyrazol-1-yl)benzyl)-2-(2-isopropylphenyl)-7,9-dihydro-8H-purin-8-one] stands 50 to 200 nM; under `CN1CCc2cccc(-c3ncc4[nH]c(=O)n(Cc5ccc(-c6nc(C(F)(F)F)cn6C)cc5)c4n3)c21` [Compound I-34, 9-(4-(1-methyl-4-(trifluoromethyl)-1H-imidazol-2-yl)benzyl)-2-(1-methylindolin-7-yl)-7,9-dihydro-8H-purin-8-one], less than 50 nM.

For `CC(=O)N1CCC(c2ccn(-c3ccc(Cn4c(=O)[nH]c5cnc(-c6c(F)cccc6C(C)C)nc54)cc3)n2)CC1` [Compound I-474, 9-(4-(3-(1-acetylpiperidin-4-yl)-1H-pyrazol-1-yl)benzyl)-2-(2-fluoro-6-isopropylphenyl)-7,9-dihydro-8H-purin-8-one], the IC50 was less than 50 nM.

Take `CC(C)c1ccccc1-c1ncc2[nH]c(=O)n(Cc3ccc(-c4cnnn4C)cc3)c2n1` [Compound I-298, 2-(2-isopropylphenyl)-9-(4-(1-methyl-1H-1,2,3-triazol-5-yl)benzyl)-7,9-dihydro-8H-purin-8-one]: the IC50 was more than 2000 nM.

In turn, `CC(C)c1ccccc1-c1ncc2c(n1)n(Cc1ccc(-c3cccn4ccnc34)cc1)c(=O)n2C` [Compound I-269, 9-(4-(imidazo[1,2-a]pyridin-8-yl)benzyl)-2-(2-isopropylphenyl)-7-methyl-7,9-dihydro-8H-purin-8-one] showed an IC50 of less than 50 nM. Under `CC(C)c1ncccc1-c1ncc2[nH]c(=O)n(Cc3ccc(-n4ccc(F)n4)cc3)c2n1` [Compound I-59, 9-(4-(3-fluoro-1H-pyrazol-1-yl)benzyl)-2-(2-isopropylpyridin-3-yl)-7,9-dihydro-8H-purin-8-one] stands 50 to 200 nM; under `CC(=O)c1ccccc1-c1ncc2[nH]c(=O)n(Cc3ccc(-c4nc(C(F)(F)F)cn4C)cc3)c2n1` [Compound I-38, 2-(2-acetylphenyl)-9-(4-(1-methyl-4-(trifluoromethyl)-1H-imidazol-2-yl)benzyl)-7,9-dihydro-8H-purin-8-one], less than 50 nM; under `CC(C)c1ccccc1-c1ncc2[nH]c(=O)n([C@H](C)c3ccc(-n4cccn4)cc3)c2n1` (single isomer, unassigned) [Compound I-158], less than 50 nM. For `CC(C)c1ccccc1-c1ncc2[nH]c(=O)n(Cc3ccc(-c4cc(N5CCOCC5)ncn4)cc3)c2n1` [Compound I-250, 2-(2-isopropylphenyl)-9-(4-(6-morpholinopyrimidin-4-yl)benzyl)-7,9-dihydro-8H-purin-8-one] the value was 50 to 200 nM; for `CC(=O)N1CCC(c2cn(C)c(-c3ccc(Cn4c(=O)[nH]c5cnc(-c6ccccc6C(C)C)nc54)cc3)n2)CC1` [Compound I-472, 9-(4-(4-(1-acetylpiperidin-4-yl)-1-methyl-1H-imidazol-2-yl)benzyl)-2-(2-isopropylphenyl)-7,9-dihydro-8H-purin-8-one], less than 50 nM; for `CC(C)c1c(F)cccc1-c1ncc2[nH]c(=O)n(Cc3ccc(-n4ncc5c4CNC5)cc3)c2n1` [Compound I-103, 9-(4-(5,6-dihydropyrrolo[3,4-c]pyrazol-1(4H)-yl)benzyl)-2-(3-fluoro-2-isopropylphenyl)-7,9-dihydro-8H-purin-8-one], 50 to 200 nM. Under `CC(C)c1ccccc1-c1ncc2[nH]c(=O)n(Cc3ccc(C(=O)N(C)CC(F)(F)F)cc3)c2n1` [Compound I-406, 4-((2-(2-isopropylphenyl)-8-oxo-7,8-dihydro-9H-purin-9-yl)methyl)-N-methyl-N-(2,2,2-trifluoroethyl)benzamide] stands 50 to 200 nM.
